Patent US20240409585A1, “MACROCYCLIC IMMUNOMODULATORS” (priority 2021, published 2024)
Read-outs that look alike come from different tables or passages of the source. Numbered stars: 1 amine (or outer) side, 2 acyl side, 3 side chain; on linkers, the order of the positions; unused ones are H or OH. Bridge positions count the residues as written; N and C are the ends. Square brackets hold non-standard residues; d marks the D form. Peptide text beside a SMILES is read from it. * marks the point of attachment. Phe(3-CF3) = N[C@@H](Cc1cccc(C(F)(F)F)c1)C(=O)O; X8 = N=C(N)NCc1cccc(C[C@H](N[*:1])C(=O)[*:2])c1; Ala(morpholin-4-yl) = N[C@@H](CN1CCOCC1)C(=O)O; Phe(4-CONH2) = NC(=O)c1ccc(C[C@H](N)C(=O)O)cc1; Phe(4-COOH) = N[C@@H](Cc1ccc(C(=O)O)cc1)C(=O)O; Phe(3,5-F2) = N[C@@H](Cc1cc(F)cc(F)c1)C(=O)O; Bip = N[C@@H](Cc1ccc(-c2ccccc2)cc1)C(=O)O; Abu(3R-NH2) = C[C@@H](N)[C@H](N)C(=O)O; Phe(3-Me) = Cc1cccc(C[C@H](N)C(=O)O)c1; Abu(3S-NH2) = C[C@H](N)[C@H](N)C(=O)O; Val(3-OH) = CC(C)(O)[C@H](N)C(=O)O; Ala(cPr) = N[C@@H](CC1CC1)C(=O)O; hPhe = N[C@@H](CCc1ccccc1)C(=O)O; 3Pal = N[C@@H](Cc1cccnc1)C(=O)O; Cha = N[C@@H](CC1CCCCC1)C(=O)O; Carboxymethyl = O=C(O)C*; NMeA = CN[C@@H](C)C(=O)O; Orn = NCCC[C@H](N)C(=O)O; Dab = NCC[C@H](N)C(=O)O; Nva = CCC[C@H](N)C(=O)O

Key:
[1] = biological target: T1, Alexa fluor-647 labeled human PD-L1-Ig binding to Jurkat cell line over-expressing human PD-1 (Homo sapiens, UniProt Q15116); test: Jurkat-PD-1 Cell Binding High-Content Screening Assay (CBA): Method 3 (Alexa fluor-647 labeled PD-L1-Ig); conditions: Jurkat-PD-1 cells, Alexa fluor-647 labeled PD-L1-Ig 177 nM
T1 construct: expressed in transfected cells; host or cells: Jurkat
T1 sequence (Q15116 25-288): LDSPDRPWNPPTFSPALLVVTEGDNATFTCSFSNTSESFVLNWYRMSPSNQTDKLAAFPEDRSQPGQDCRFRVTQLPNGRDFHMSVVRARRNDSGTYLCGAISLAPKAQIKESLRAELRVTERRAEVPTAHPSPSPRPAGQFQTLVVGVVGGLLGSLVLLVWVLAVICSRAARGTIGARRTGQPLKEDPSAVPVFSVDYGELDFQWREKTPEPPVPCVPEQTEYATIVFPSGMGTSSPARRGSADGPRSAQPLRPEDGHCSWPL
Outline: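 Readout by high-content imaging of PFA-fixed, Hoechst-stained cells after 1 h with 177 nM (final) Alexa fluor-647 PD-L1-Ig. Compound was added first to hPD-1 Jurkat cells in RPMI plus 10% FCS for 2 h at 37 °C.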

[2] = biological target: T2, PD1-PDL1 protein-protein binding interaction [hPD1(25-167)-hIgG, hPD-L1 (19-239)-6xHis] (Homo sapiens, UniProt Q15116); test: HTRF Assay (TR-FRET); conditions: 5 nM hPD1-hIgG, 5 nM hPD-L1-6xHis, 24 hours at 25° C.
T2 construct: hPD1(25-167)-hIgG, BMS
T2 sequence (Q15116 25-167): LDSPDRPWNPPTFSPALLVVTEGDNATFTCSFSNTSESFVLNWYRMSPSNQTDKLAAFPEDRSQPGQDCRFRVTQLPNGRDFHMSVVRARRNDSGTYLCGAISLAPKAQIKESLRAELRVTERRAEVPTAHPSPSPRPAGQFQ
Procedure: A time-resolved fluorescence resonance energy transfer (TR-FRET) assay was employed to measure the inhibition of the PD1-PDL1 protein-protein binding interaction. The reaction buffer was prepared by mixing the HiBlock buffer and LANCE detection buffer (PerkinElmer, TRF1011F and CR97-100) at a 1:1 ratio. Assay reactions contained 5 nM human programmed cell death 1 [hPD1(25-167)-hIgG, BMS], 5 nM human programmed cell death ligand 1 [hPD-L1 (19-239)-6×His, BMS], in the presence of 1 nM LANCE Eu-W1024 Anti-Human IgG (Eu-anti hIgG, PerkinElmer, AD0074) and 20 nM SureLight Allophycocyanin-anti-6×His antibody (APC-anti-6×His, PerkinElmer, AD0059H). Test compounds were evaluated in a 10-point dose-response format with serial three-fold dilutions starting from a 2 uM top concentration. Reactions were carried out in a total volume of 10 uL in 384-well microtiter plates (Proxiplate white, PerkinElmer, 6008289). Plates were sealed and incubated for 24 hours at 25° C. After 24 hours, the TR-FRET signal was measured using a PerkinElmer EnVision multimode plate reader and the resulting ratiometric data set (signal at 665 nm/615 nm, multiplied by a factor of 10,000) was recorded. The concentration giving half-maximal inhibition (the IC50) was obtained by fitting the data to a four-parameter logistic equation using Graphpad Prism or Dotmatics.

[3] = head μM, read-out: CBA Method 3 μM

Row | SMILES | IC50 ([1]; nM, read-out: CBA Method 3) | IC50 ([2]; head μM) | IC50 [1, 3] | IC50 ([2]; nM)
1 | Cc1cccc(C[C@@H]2NC(=O)[C@H](CC(=O)O)NC(=O)[C@H](Cc3ccc(OCC(=O)O)cc3)NC(=O)[C@H](CN3CCOCC3)NC(=O)CSC[C@@H](C(=O)N[C@@H](CCN)C(N)=O)NC(=O)[C@H](CCC(=O)O)NC(=O)[C@H](C(C)C)NC(=O)[C@H](CC3CCCCC3)NC(=O)[C@H](CCN)NC(=O)[C@@H](CC(C)C)NC(=O)[C@H](C)N(C)C(=O)[C@H](CCC(N)=O)NC(=O)[C@H](Cc3ccc(-c4ccccc4)cc3)NC(=O)[C@H](CCc3ccccc3)NC2=O)c1 [Example 5212] ({CH2CO}-[Ala(morpholin-4-yl)]Y(Carboxymethyl)D[Phe(3-Me)][hPhe][Bip]Q[NMeA][dL][Dab][Cha]VEC[Dab]-NH2; thioether N-14) | 3.9 nM | 0.02 µM |  | 
2 | CC(C)C[C@H]1NC(=O)[C@H](C)N(C)C(=O)[C@H](Cc2ccc(C(N)=O)cc2)NC(=O)[C@H](Cc2ccc(-c3ccccc3)cc2)NC(=O)[C@H](CCc2ccccc2)NC(=O)[C@H](Cc2cccc(C(F)(F)F)c2)NC(=O)[C@H](CC(=O)O)NC(=O)[C@H](Cc2ccc(C(=O)O)cc2)NC(=O)[C@H]([C@H](C)N)NC(=O)CSC[C@@H](C(=O)N[C@@H](CCN)C(N)=O)NC(=O)[C@H](CCC(N)=O)NC(=O)[C@H](C(C)(C)O)NC(=O)[C@H](CC2CCCCC2)NC(=O)[C@H](CCN)NC1=O [Example 5206] ({CH2CO}-[Abu(3S-NH2)][Phe(4-COOH)]D[Phe(3-CF3)][hPhe][Bip][Phe(4-CONH2)][NMeA][dL][Dab][Cha][Val(3-OH)]QC[Dab]-NH2; thioether N-14) |  | 0.05 µM | 10 nM | 
3 | CC(C)C[C@H]1NC(=O)[C@H](C)N(C)C(=O)[C@H](CCC(N)=O)NC(=O)[C@H](Cc2ccc(-c3ccccc3)cc2)NC(=O)[C@H](CCc2ccccc2)NC(=O)[C@H](Cc2cccc(C(F)(F)F)c2)NC(=O)[C@H](CC(=O)O)NC(=O)[C@H](Cc2cccnc2)NC(=O)[C@H]([C@@H](C)N)NC(=O)CSC[C@@H](C(=O)N[C@@H](CCN)C(N)=O)NC(=O)[C@H](CCCN)NC(=O)[C@H](C(C)C)NC(=O)[C@H](CC2CCCCC2)NC(=O)[C@H](CCN)NC1=O [Example 5244] ({CH2CO}-[Abu(3R-NH2)][3Pal]D[Phe(3-CF3)][hPhe][Bip]Q[NMeA][dL][Dab][Cha]V[Orn]C[Dab]-NH2; thioether N-14) | 6.4 nM | 0.03 µM |  | 
4 | Cc1cccc(C[C@@H]2NC(=O)[C@H](CC(=O)O)NC(=O)[C@H](Cc3ccc(OCC(=O)O)cc3)NC(=O)[C@H](Cc3cccc(CNC(=N)N)c3)NC(=O)CSC[C@@H](C(=O)N[C@@H](CCN)C(N)=O)NC(=O)[C@H](CCCN)NC(=O)[C@H](C(C)C)NC(=O)[C@H](CC3CCCCC3)NC(=O)[C@H](CCN)NC(=O)[C@@H](CC(C)C)NC(=O)[C@H](C)N(C)C(=O)[C@H](CCC(N)=O)NC(=O)[C@H](Cc3ccc(-c4ccccc4)cc3)NC(=O)[C@H](Cc3ccc(C(=O)O)cc3)NC2=O)c1 [Example 5279] ({CH2CO}-[X8]Y(Carboxymethyl)D[Phe(3-Me)][Phe(4-COOH)][Bip]Q[NMeA][dL][Dab][Cha]V[Orn]C[Dab]-NH2; thioether N-14) | 3 nM | 0.015 µM |  | 
5 | CCC[C@@H]1NC(=O)CSC[C@@H](C(=O)N[C@@H](CCN)C(N)=O)NC(=O)[C@H](CCCN)NC(=O)[C@H](C(C)C)NC(=O)[C@H](CC2CCCCC2)NC(=O)[C@H](CCN)NC(=O)[C@@H](CC(C)C)NC(=O)[C@H](C)N(C)C(=O)[C@H](CCC(N)=O)NC(=O)[C@H](Cc2ccc(-c3ccccc3)cc2)NC(=O)[C@H](Cc2ccc(C(=O)O)cc2)NC(=O)[C@H](Cc2cccc(C)c2)NC(=O)[C@H](CC(=O)O)NC(=O)[C@H](Cc2ccc(OCC(=O)O)cc2)NC1=O [Example 5297] ({CH2CO}-[Nva]Y(Carboxymethyl)D[Phe(3-Me)][Phe(4-COOH)][Bip]Q[NMeA][dL][Dab][Cha]V[Orn]C[Dab]-NH2; thioether N-14) |  |  |  | 0.0023 µM
6 | Cc1cccc(C[C@@H]2NC(=O)[C@H](CC(=O)O)NC(=O)[C@H](Cc3ccc(OCC(=O)O)cc3)NC(=O)[C@H](Cc3cc(F)cc(F)c3)NC(=O)CSC[C@@H](C(=O)N[C@@H](CCN)C(N)=O)NC(=O)[C@H](CCCN)NC(=O)[C@H](C(C)C)NC(=O)[C@H](CC3CCCCC3)NC(=O)[C@H](CCN)NC(=O)[C@@H](CC(C)C)NC(=O)[C@H](C)N(C)C(=O)[C@H](CCC(N)=O)NC(=O)[C@H](Cc3ccc(-c4ccccc4)cc3)NC(=O)[C@H](Cc3ccc(C(=O)O)cc3)NC2=O)c1 [Example 5284] ({CH2CO}-[Phe(3,5-F2)]Y(Carboxymethyl)D[Phe(3-Me)][Phe(4-COOH)][Bip]Q[NMeA][dL][Dab][Cha]V[Orn]C[Dab]-NH2; thioether N-14) |  | 0.01 µM | 200 nM | 
7 | CC(C)C[C@H]1NC(=O)[C@H](C)N(C)C(=O)[C@H](CCC(N)=O)NC(=O)[C@H](Cc2ccc(-c3ccccc3)cc2)NC(=O)[C@H](CCc2ccccc2)NC(=O)[C@H](Cc2cccc(C(F)(F)F)c2)NC(=O)[C@H](CC(=O)O)NC(=O)[C@H](Cc2cccnc2)NC(=O)[C@H](CN2CCOCC2)NC(=O)CSC[C@@H](C(=O)N[C@@H](CCN)C(N)=O)NC(=O)[C@H](CCCN)NC(=O)[C@H](C(C)C)NC(=O)[C@H](CC2CCCCC2)NC(=O)[C@H](CCN)NC1=O [Example 5243] ({CH2CO}-[Ala(morpholin-4-yl)][3Pal]D[Phe(3-CF3)][hPhe][Bip]Q[NMeA][dL][Dab][Cha]V[Orn]C[Dab]-NH2; thioether N-14) | 2.2 nM | 0.03 µM |  | 
8 | CC(C)C[C@H]1NC(=O)[C@H](C)N(C)C(=O)[C@H](CCC(N)=O)NC(=O)[C@H](Cc2ccc(-c3ccccc3)cc2)NC(=O)[C@H](CCc2ccccc2)NC(=O)[C@H](Cc2cccc(C(F)(F)F)c2)NC(=O)[C@H](CC(=O)O)NC(=O)[C@H](CCC(N)=O)NC(=O)[C@H](CN2CCOCC2)NC(=O)CSC[C@@H](C(=O)N[C@@H](CCN)C(N)=O)NC(=O)[C@H](CCCN)NC(=O)[C@H](C(C)C)NC(=O)[C@H](CC2CCCCC2)NC(=O)[C@H](CCN)NC1=O [Example 5245] ({CH2CO}-[Ala(morpholin-4-yl)]QD[Phe(3-CF3)][hPhe][Bip]Q[NMeA][dL][Dab][Cha]V[Orn]C[Dab]-NH2; thioether N-14) |  | 0.01 µM | 10 nM | 
9 | CC(C)C[C@H]1NC(=O)[C@H](C)N(C)C(=O)[C@H](CCC(N)=O)NC(=O)[C@H](Cc2ccc(-c3ccccc3)cc2)NC(=O)[C@H](CCc2ccccc2)NC(=O)[C@H](Cc2cccc(C(F)(F)F)c2)NC(=O)[C@H](CC(=O)O)NC(=O)[C@H](Cc2ccc(O)cc2)NC(=O)[C@H](CN2CCOCC2)NC(=O)CSC[C@@H](C(=O)N[C@@H](CCN)C(N)=O)NC(=O)[C@H](CCCN)NC(=O)[C@H](C(C)C)NC(=O)[C@H](CC2CCCCC2)NC(=O)[C@H](CCN)NC1=O [Example 5235] ({CH2CO}-[Ala(morpholin-4-yl)]YD[Phe(3-CF3)][hPhe][Bip]Q[NMeA][dL][Dab][Cha]V[Orn]C[Dab]-NH2; thioether N-14) | 3.6 nM | 0.03 µM |  | 
10 | CC(C)C[C@H]1NC(=O)[C@H](C)N(C)C(=O)[C@H](CCC(N)=O)NC(=O)[C@H](Cc2ccc(-c3ccccc3)cc2)NC(=O)[C@H](CCc2ccccc2)NC(=O)[C@H](Cc2cccc(C(F)(F)F)c2)NC(=O)[C@H](CC(=O)O)NC(=O)[C@H](Cc2ccc(OCC(=O)O)cc2)NC(=O)[C@H](CN2CCOCC2)NC(=O)CSC[C@@H](C(=O)N[C@@H](CCN)C(N)=O)NC(=O)[C@H](CCC(=O)O)NC(=O)[C@H](C(C)C)NC(=O)[C@H](CC2CCCCC2)NC(=O)[C@H](CCN)NC1=O [Example 5211] ({CH2CO}-[Ala(morpholin-4-yl)]Y(Carboxymethyl)D[Phe(3-CF3)][hPhe][Bip]Q[NMeA][dL][Dab][Cha]VEC[Dab]-NH2; thioether N-14) |  | 0.04 µM | 10 nM | 
11 | Cc1cccc(C[C@@H]2NC(=O)[C@H](CC(=O)O)NC(=O)[C@H](Cc3ccc(OCC(=O)O)cc3)NC(=O)[C@H](CC3CC3)NC(=O)CSC[C@@H](C(=O)N[C@@H](CCN)C(N)=O)NC(=O)[C@H](CCCN)NC(=O)[C@H](C(C)C)NC(=O)[C@H](CC3CCCCC3)NC(=O)[C@H](CCN)NC(=O)[C@@H](CC(C)C)NC(=O)[C@H](C)N(C)C(=O)[C@H](CCC(N)=O)NC(=O)[C@H](Cc3ccc(-c4ccccc4)cc3)NC(=O)[C@H](Cc3ccc(C(=O)O)cc3)NC2=O)c1 [Example 5185] ({CH2CO}-[Ala(cPr)]Y(Carboxymethyl)D[Phe(3-Me)][Phe(4-COOH)][Bip]Q[NMeA][dL][Dab][Cha]V[Orn]C[Dab]-NH2; thioether N-14) | 2.3 nM | 0.01 µM |  | 
